In patent US8987250B2 (Gilead Sciences, Inc., priority 2012, dated 2015):
Read-outs that look alike come from different tables or passages of the source.

System: HIV-IIIb
Assay: Test A: Antiviral Assay in MT4 Cells
Format: cell-based
Settings: Human immunodeficiency virus 1, IIIB, MT4, 120 h
Summary of the method: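 MT-4 cells pre-infected with HIV-IIIb (0.004 m.o.i.) at 37 °C, then exposed to 3-fold serial compound dilutions (10 concentrations, quadruplicate) in RPMI 1640/10% FBS. After 5 days at 37 °C, viability read by CellTiter-Glo luminescence.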

[1] = Table 2, MT-4 cells infected with HIV-IIIb, 5 days of incubation, CellTiter-Glo, read-out: EC50

For `Cc1cnc(-c2ccc3c(cnn3C)c2)cc1-c1nc2cc(C)c([C@H](OC(C)(C)C)C(=O)O)c(-c3ccc(Cl)cc3)c2s1` [Compound 289, (S)-2-(tert-butoxy)-2-(7-(4-chlorophenyl)-5-methyl-2-(5-methyl-2-(1-methyl-1H-indazol-5-yl)pyridin-4-yl)benzo[d]thiazol-6-yl)acetic acid], which EC50 [1] is on record?
Its EC50 is 25 nM.

For `Cc1cc2nc(-c3cc(-c4ccc5c(cnn5C)c4)ncc3C(F)F)sc2c(-c2ccc(Cl)cc2)c1[C@H](OC(C)(C)C)C(=O)O` [Compound 290, (S)-2-(tert-butoxy)-2-(7-(4-chlorophenyl)-2-(5-(difluoromethyl)-2-(1-methyl-1H-indazol-5-yl)pyridin-4-yl)-5-methylbenzo[d]thiazol-6-yl)acetic acid], which EC50 [1] is on record?
The EC50 was 87 nM.

`Cc1cc2nc(-c3cc(-c4ccc5c(cnn5C)c4)ncc3F)sc2c(-c2ccc(Cl)cc2)c1[C@H](OC(C)(C)C)C(=O)O` [Compound 291, (S)-2-(tert-butoxy)-2-(7-(4-chlorophenyl)-2-(5-fluoro-2-(1-methyl-1H-indazol-5-yl)pyridin-4-yl)-5-methylbenzo[d]thiazol-6-yl)acetic acid] was tested. Which EC50 [1] did it give?
Its EC50 is 76 nM.

How did the EC50 [1] turn out when `Cc1cc2nc(-c3ccc4nc(C)n(C)c4c3)sc2c(-c2ccc(Cl)cc2)c1[C@H](OC(C)(C)C)C(=O)O` [Compound 292, (S)-2-(tert-butoxy)-2-(7-(4-chlorophenyl)-2-(1,2-dimethyl-1H-benzo[d]imidazol-6-yl)-5-methylbenzo[d]thiazol-6-yl)acetic acid] was run?
Its EC50 is 23 nM.

How did the EC50 [1] turn out when `Cc1nc2c([nH]1)CCN(c1nc3cc(C)c([C@H](OC(C)(C)C)C(=O)O)c(-c4ccc(Cl)cc4)c3s1)C2` [Compound 293, (S)-2-tert-butoxy-2-(7-(4-chlorophenyl)-5-methyl-2-(2-methyl-6,7-dihydro-1H-imidazo[4,5-c]pyridin-5(4H)-yl)benzo[d]thiazol-6-yl)acetic acid] was run?
The EC50 was 215 nM.

With `Cc1cc2nc(-c3ccc4c(c3)nc(C)n4C3CCN(C)CC3)sc2c(-c2ccc(Cl)cc2)c1[C@H](OC(C)(C)C)C(=O)O` [Compound 294, (S)-2-(tert-butoxy)-2-(7-(4-chlorophenyl)-5-methyl-2-(2-methyl-1-(1-methylpiperidin-4-yl)-1H-benzo[d]imidazol-5-yl)benzo[d]thiazol-6-yl)acetic acid] as the molecule, how does the EC50 [1] read?
The EC50 was 36 nM.

For `Cc1cc2nc(-c3ccc4c(c3)ncn4C3CCN(C)CC3)sc2c(-c2ccc(Cl)cc2)c1[C@H](OC(C)(C)C)C(=O)O` [Compound 295, (S)-2-(tert-butoxy)-2-(7-(4-chlorophenyl)-5-methyl-2-(1-(1-methylpiperidin-4-yl)-1H-benzo[d]imidazol-5-yl)benzo[d]thiazol-6-yl)acetic acid], which EC50 [1] is on record?
Its EC50 is 34 nM.

Which EC50 [1] does the source give for `Cc1cc2nc(-c3ccc4nc(C)n([C@@H]5CCN(C)C5)c4c3)sc2c(-c2ccc(Cl)cc2)c1[C@H](OC(C)(C)C)C(=O)O` [Compound 296, (S)-2-tert-butoxy-2-(7-(4-chlorophenyl)-5-methyl-2-(2-methyl-1-((R)-1-methylpyrrolidin-3-yl)-1H-benzo[d]imidazol-6-yl)benzo[d]thiazol-6-yl)acetic acid] here?
Its EC50 is 13 nM.

With `Cc1cc2nc(-c3ccc4nc(C)n(C5CN(C)C5)c4c3)sc2c(-c2ccc(Cl)cc2)c1[C@H](OC(C)(C)C)C(=O)O` [Compound 297, (S)-2-tert-butoxy-2-(7-(4-chlorophenyl)-5-methyl-2-(2-methyl-1-(1-methylazetidin-3-yl)-1H-benzo[d]imidazol-6-yl)benzo[d]thiazol-6-yl)acetic acid] as the molecule, how does the EC50 [1] read?
Its EC50 is 17 nM.

With `Cc1cc2nc(-c3ccc4nc(C)n(C5CNC5)c4c3)sc2c(-c2ccc(Cl)cc2)c1[C@H](OC(C)(C)C)C(=O)O` [Compound 298, (S)-2-(2-(1-(azetidin-3-yl)-2-methyl-1H-benzo[d]imidazol-6-yl)-7-(4-chlorophenyl)-5-methylbenzo[d]thiazol-6-yl)-2-tert-butoxyacetic acid] as the molecule, how does the EC50 [1] read?
Its EC50 is 181 nM.

For `Cc1cc2nc(-c3ccc4nc(C)n([C@@H]5CCNC5)c4c3)sc2c(-c2ccc(Cl)cc2)c1[C@H](OC(C)(C)C)C(=O)O` [Compound 299, (S)-2-tert-butoxy-2-(7-(4-chlorophenyl)-5-methyl-2-(2-methyl-1-((R)-pyrrolidin-3-yl)-1H-benzo[d]imidazol-6-yl)benzo[d]thiazol-6-yl)acetic acid], which EC50 [1] is on record?
The EC50 was 130 nM.

Which EC50 [1] does the source give for `Cc1cc2nc(-c3ccc4nc(C)n([C@@H]5CCN(C(C)C)C5)c4c3)sc2c(-c2ccc(Cl)cc2)c1[C@H](OC(C)(C)C)C(=O)O` [Compound 300, (S)-2-tert-butoxy-2-(7-(4-chlorophenyl)-2-(1-((R)-1-isopropylpyrrolidin-3-yl)-2-methyl-1H-benzo[d]imidazol-6-yl)-5-methylbenzo[d]thiazol-6-yl)acetic acid] here?
Its EC50 is 12 nM.

Which EC50 [1] does the source give for `Cc1cc2nc(-c3ccc4nc(C)n([C@H]5CCNC5)c4c3)sc2c(-c2ccc(Cl)cc2)c1[C@H](OC(C)(C)C)C(=O)O` [Compound 301, (S)-2-tert-butoxy-2-(7-(4-chlorophenyl)-5-methyl-2-(2-methyl-1-((S)-pyrrolidin-3-yl)-1H-benzo[d]imidazol-6-yl)benzo[d]thiazol-6-yl)acetic acid] here?
Its EC50 is 109 nM.

`Cc1cc2nc(-c3cnc4c(c3)nc(C)n4C)sc2c(-c2ccc(Cl)cc2)c1[C@H](OC(C)(C)C)C(=O)O` [Compound 302, (S)-2-tert-butoxy-2-(7-(4-chlorophenyl)-2-(2,3-dimethyl-3H-imidazo[4,5-b]pyridin-6-yl)-5-methylbenzo[d]thiazol-6-yl)acetic acid] was tested. Which EC50 [1] did it give?
The EC50 was 8 nM.

Which EC50 [1] does the source give for `Cc1cc2nc(-c3ccc4c(c3)[nH]c(=O)n4C)sc2c(-c2ccc(Cl)cc2)c1[C@H](OC(C)(C)C)C(=O)O` [Compound 303, (S)-2-tert-butoxy-2-(7-(4-chlorophenyl)-5-methyl-2-(1-methyl-2-oxo-2,3-dihydro-1H-benzo[d]imidazol-5-yl)benzo[d]thiazol-6-yl)acetic acid] here?
The EC50 was 19 nM.

Which EC50 [1] does the source give for `Cc1cc2nc(-c3cnc(C)c(-c4ccc5c(cnn5C)c4)c3)sc2c(-c2ccc(Cl)cc2)c1[C@H](OC(C)(C)C)C(=O)O` [Compound 305, (S)-2-tert-butoxy-2-(7-(4-chlorophenyl)-5-methyl-2-(6-methyl-5-(1-methyl-1H-indazol-5-yl)pyridin-3-yl)benzo[d]thiazol-6-yl)acetic acid] here?
The EC50 was 10 nM.

With `Cc1cc2nc(-c3cc(-c4ccc5c(cnn5C)c4)cnc3C)sc2c(-c2ccc(Cl)cc2)c1[C@H](OC(C)(C)C)C(=O)O` [Compound 306, (S)-2-tert-butoxy-2-(7-(4-chlorophenyl)-5-methyl-2-(2-methyl-5-(1-methyl-1H-indazol-5-yl)pyridin-3-yl)benzo[d]thiazol-6-yl)acetic acid] as the molecule, how does the EC50 [1] read?
The EC50 was 14 nM.

For `Cc1cc2nc(-c3cccc(N4CCN(C(C)C)CC4)n3)sc2c(-c2ccc(Cl)cc2)c1[C@H](OC(C)(C)C)C(=O)O` [Compound 307, (S)-2-tert-butoxy-2-(7-(4-chlorophenyl)-2-(6-(4-isopropylpiperazin-1-yl)pyridin-2-yl)-5-methylbenzo[d]thiazol-6-yl)acetic acid], which EC50 is on record?
Its EC50 is 4 nM.

`Cc1cc2nc(-c3cccc(N4CCN(C5COC5)CC4)n3)sc2c(-c2ccc(Cl)cc2)c1[C@H](OC(C)(C)C)C(=O)O` [Compound 308, (S)-2-tert-butoxy-2-(7-(4-chlorophenyl)-5-methyl-2-(6-(4-(oxetan-3-yl)piperazin-1-yl)pyridin-2-yl)benzo[d]thiazol-6-yl)acetic acid] was tested. Which EC50 [1] did it give?
The EC50 was 6 nM.

With `Cc1cc2nc(-c3cccc(-c4ccc5c(cnn5C)c4)n3)sc2c(-c2ccc(Cl)cc2)c1[C@H](OC(C)(C)C)C(=O)O` [Compound 309, (S)-2-tert-butoxy-2-(7-(4-chlorophenyl)-5-methyl-2-(6-(1-methyl-1H-indazol-5-yl)pyridin-2-yl)benzo[d]thiazol-6-yl)acetic acid] as the molecule, how does the EC50 [1] read?
The EC50 was 37 nM.

For `Cc1cc2nc(-c3nc(-c4ccc5c(cnn5C)c4)cs3)sc2c(-c2ccc(Cl)cc2)c1[C@H](OC(C)(C)C)C(=O)O` [Compound 310, (S)-2-tert-butoxy-2-(7-(4-chlorophenyl)-5-methyl-2-(4-(1-methyl-1H-indazol-5-yl)thiazol-2-yl)benzo[d]thiazol-6-yl)acetic acid], which EC50 is on record?
The EC50 was 26 nM.

For `Cc1cc2nc(-c3nc(-c4ccc5c(cnn5C)c4)ccc3N)sc2c(-c2ccc(Cl)cc2)c1[C@H](OC(C)(C)C)C(=O)O` [Compound 311, (S)-2-(2-(3-amino-6-(1-methyl-1H-indazol-5-yl)pyridin-2-yl)-7-(4-chlorophenyl)-5-methylbenzo[d]thiazol-6-yl)-2-tert-butoxyacetic acid], which EC50 [1] is on record?
Its EC50 is 45 nM.

`Cc1cc2nc(-c3cn(C)c(-c4ccc5c(cnn5C)c4)n3)sc2c(-c2ccc(Cl)cc2)c1[C@H](OC(C)(C)C)C(=O)O` [Compound 312, (S)-2-tert-butoxy-2-(7-(4-chlorophenyl)-5-methyl-2-(1-methyl-2-(1-methyl-1H-indazol-5-yl)-1H-imidazol-4-yl)benzo[d]thiazol-6-yl)acetic acid] was tested. Which EC50 [1] did it give?
The EC50 was 37 nM.

For `Cc1ccc(-c2nc3cc(C)c([C@H](OC(C)(C)C)C(=O)O)c(-c4ccc(Cl)cc4)c3s2)nc1-c1ccc2c(cnn2C)c1` [Compound 313, (S)-2-tert-butoxy-2-(7-(4-chlorophenyl)-5-methyl-2-(5-methyl-6-(1-methyl-1H-indazol-5-yl)pyridin-2-yl)benzo[d]thiazol-6-yl)acetic acid], which EC50 [1] is on record?
Its EC50 is 14 nM.

Which EC50 [1] does the source give for `Cc1cc2nc(-c3ccc4c(c3)c(C)nn4Cc3ccccc3)sc2c(-c2ccc(Cl)cc2)c1[C@H](OC(C)(C)C)C(=O)O` [Compound 314, (S)-2-(2-(1-benzyl-3-methyl-1H-indazol-5-yl)-7-(4-chlorophenyl)-5-methylbenzo[d]thiazol-6-yl)-2-tert-butoxyacetic acid] here?
Its EC50 is 42 nM.

`Cc1cc2nc(-c3ccc4nn(Cc5ccccc5)c(C)c4c3)sc2c(-c2ccc(Cl)cc2)c1[C@H](OC(C)(C)C)C(=O)O` [Compound 315, (S)-2-(2-(2-benzyl-3-methyl-2H-indazol-5-yl)-7-(4-chlorophenyl)-5-methylbenzo[d]thiazol-6-yl)-2-tert-butoxyacetic acid] was tested. Which EC50 [1] did it give?
The EC50 was 34 nM.
